Measured values: ChEMBL document CHEMBL1132007, “The synthesis and biological evaluation of non-peptidic matrix metalloproteinase inhibitors” (Bioorg Med Chem Lett, 1999)

Key:
[1] = molecular target: T1, Interstitial collagenase (Homo sapiens, UniProt P03956)
T1 sequence (P03956 whole entry): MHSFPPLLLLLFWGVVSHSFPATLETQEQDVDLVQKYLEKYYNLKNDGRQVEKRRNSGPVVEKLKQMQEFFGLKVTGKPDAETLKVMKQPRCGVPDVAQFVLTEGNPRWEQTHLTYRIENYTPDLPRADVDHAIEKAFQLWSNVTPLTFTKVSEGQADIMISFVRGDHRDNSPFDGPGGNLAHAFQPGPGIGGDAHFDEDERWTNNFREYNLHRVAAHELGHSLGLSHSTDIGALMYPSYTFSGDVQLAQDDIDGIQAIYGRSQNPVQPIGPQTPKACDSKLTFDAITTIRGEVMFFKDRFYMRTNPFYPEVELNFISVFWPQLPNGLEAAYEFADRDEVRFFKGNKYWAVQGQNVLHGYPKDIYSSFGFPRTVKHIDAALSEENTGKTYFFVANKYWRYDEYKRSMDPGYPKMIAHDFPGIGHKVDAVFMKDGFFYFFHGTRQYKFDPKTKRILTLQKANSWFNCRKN

[2] = in vivo; conditions: rat, po
[3] = species: Rattus norvegicus; conditions: in vivo, po
[4] = molecular target: Neutrophil collagenase (Homo sapiens, UniProt P22894)
[5] = molecular target: Stromelysin-1 (Homo sapiens) (UniProt P08254)
Stromelysin-1 (Homo sapiens), sequence (P08254 whole entry, looked up): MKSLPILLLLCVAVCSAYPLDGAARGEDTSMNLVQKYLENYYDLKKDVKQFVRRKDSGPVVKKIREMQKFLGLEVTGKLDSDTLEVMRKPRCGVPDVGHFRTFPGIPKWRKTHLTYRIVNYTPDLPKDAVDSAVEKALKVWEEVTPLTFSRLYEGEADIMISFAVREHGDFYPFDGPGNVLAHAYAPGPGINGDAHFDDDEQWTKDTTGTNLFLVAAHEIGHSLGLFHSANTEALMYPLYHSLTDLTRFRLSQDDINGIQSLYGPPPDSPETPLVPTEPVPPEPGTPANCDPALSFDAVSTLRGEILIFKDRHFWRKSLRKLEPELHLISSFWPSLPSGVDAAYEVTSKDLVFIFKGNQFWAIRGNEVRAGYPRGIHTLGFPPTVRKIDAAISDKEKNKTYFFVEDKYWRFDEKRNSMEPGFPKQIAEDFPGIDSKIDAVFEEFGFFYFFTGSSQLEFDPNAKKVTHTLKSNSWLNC

Neutrophil collagenase, sequence (P22894 whole entry): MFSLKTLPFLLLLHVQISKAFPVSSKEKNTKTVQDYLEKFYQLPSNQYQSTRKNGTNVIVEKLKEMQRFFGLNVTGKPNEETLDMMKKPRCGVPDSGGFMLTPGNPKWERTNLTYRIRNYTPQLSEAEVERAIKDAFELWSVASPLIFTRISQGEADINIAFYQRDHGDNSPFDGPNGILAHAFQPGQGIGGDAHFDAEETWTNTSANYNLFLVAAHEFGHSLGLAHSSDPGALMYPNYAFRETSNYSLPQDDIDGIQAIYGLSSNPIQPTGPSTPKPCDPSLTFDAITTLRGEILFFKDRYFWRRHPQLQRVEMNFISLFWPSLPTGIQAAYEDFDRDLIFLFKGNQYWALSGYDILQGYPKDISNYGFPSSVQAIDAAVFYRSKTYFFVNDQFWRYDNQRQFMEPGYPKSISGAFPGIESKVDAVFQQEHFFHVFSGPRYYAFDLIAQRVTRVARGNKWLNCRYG

Row | Structure (SMILES) | IC50 [1] | other results
1 | CN(C[C@H](C(=O)NO)[C@@H](CC1CCCC1)C(=O)N1CCOCC1)S(C)(=O)=O | 5 nM | –
2 | CN(C[C@H](C(=O)NO)[C@@H](CC1CCCC1)C(=O)N1CCCCC1)S(C)(=O)=O | – | Cmax at 0.5 h [2]: 172 ng/mL; AUC [3]: 662 ng·h/mL
3 | CC(C)C[C@@H](C(=O)N1CCOCC1)[C@H](CN1C(=O)c2ccccc2C1=O)C(=O)NO | 20 nM | IC50 [4]: 600 nM
4 | CN(C[C@H](C(=O)NO)[C@@H](CC1CCCC1)C(=O)N1CCCCC1)S(=O)(=O)c1cccc2ccccc12 | 6 nM | –
5 | CC(C)C[C@@H](C(=O)N1CCCCC1)[C@H](CN(C)S(C)(=O)=O)C(=O)NO | 60 nM | –
6 | COc1ccc(S(=O)(=O)N(C)C[C@H](C(=O)NO)[C@@H](CC2CCCC2)C(=O)N2CCOCC2)cc1 | 10 nM | –
7 | CC(C)C[C@@H](C(=O)N(C)C)[C@H](CN(C)S(C)(=O)=O)C(=O)NO | 1000 nM | –
8 | CC(C)C[C@@H](C(=O)N1CCCCC1)[C@H](O)C(=O)NO | 800 nM | IC50 [4]: 1000 nM; IC60 [5]: 100000 nM
9 | CN(C[C@H](C(=O)NO)[C@@H](CC1CCCC1)C(=O)N1CCCCC1)S(=O)(=O)c1ccc(Cl)cc1 | 9 nM | –
10 | CS(=O)(=O)N(C[C@H](C(=O)NO)[C@@H](CC1CCCC1)C(=O)N1CCCCC1)C1CC1 | 10 nM | –
